# Measurements published in BindingDB's records for doi:10.1021/jm00043a011 (University of Athens, 1994).
# *1 amine or outer side, *2 acyl side, *3 side chain or, on linkers, in order; H or OH if unused. Where a SMILES comes first, the peptide text is derived from it. [ ]: non-standard residue; d: D form. PheΨ(PO2HCH2)Gly = O=C(CCP(=O)(O)[C@H](Cc1ccccc1)N[*:1])[*:2]; X2 = O=C(CCP(=O)(O)[C@@H](Cc1ccccc1)N[*:1])[*:2]; X1 = O=C(CCP(O)(O)=C(Cc1ccccc1)N[*:1])[*:2]; Nle = CCCC[C@H](N)C(=O)O
# Test: Binding constant containing a pseudophenylalanine residue
row,SMILES,Ki [µM]
1,"CCCCC1NC(=O)[C@H]2CCCN2C(=O)CCP(=O)(O)[C@@H](Cc2ccccc2)NC(=O)[C@@H]2CCCN2C(=O)CCNC1=O (stereo partly drawn) [(6S,9S,22R)-6-Benzyl-19-butyl-5-hydroxy-5-oxo-1,7,13,17,20-pentaaza-5lambda*5*-phospha-tricyclo[20.3.0.0*9,13*]pentacosane-2,8,14,18,21-pentaone]",0.09

# Test: Inhibition of bacterial collagenase from corynebacterium rathaii
row,SMILES,Ki [µM]
1,O=C1NCC(=O)N2CCC[C@H]2C(=O)N[C@@H](Cc2ccccc2)P(=O)(O)CCC(=O)N2CCC[C@@H]12,9
2,COC(=O)[C@@H]1CSSC[C@H](NC(C)=O)C(=O)N2CCC[C@H]2C(=O)N[C@H](Cc2ccccc2)P(=O)(O)CCC(=O)N2CCC[C@H]2C(=O)N1,3
3,COC(=O)[C@H]1CSSC[C@@H](NC(C)=O)C(=O)N2CCC[C@@H]2C(=O)N[C@@H](Cc2ccccc2)P(=O)(O)CCC(=O)N2CCC[C@@H]2C(=O)N1,45
4,CCCC[C@@H]1NC(=O)[C@@H]2CCCN2C(=O)CCP(=O)(O)[C@H](Cc2ccccc2)NC(=O)[C@@H]2CCCN2C(=O)CNC1=O,0.18
5,O=C1NCC(=O)N2CCC[C@H]2C(O)N=C(Cc2ccccc2)P(O)(O)=CCC(=O)N2CCC[C@@H]12 (stereo partly drawn),6
6,C[C@@H]1NC(=O)[C@@H]2CCCN2C(=O)[C@H](C)NC(=O)CCP(=O)(O)[C@H](Cc2ccccc2)NC(=O)[C@@H]2CCCN2C(=O)CNC1=O (cyclo(AGP[PheΨ(PO2HCH2)Gly]AP)),20
7,C[C@@H]1NC(=O)[C@@H]2CCCN2C(=O)[C@H](C)NC(=O)CCP(=O)(O)[C@@H](Cc2ccccc2)NC(=O)[C@@H]2CCCN2C(=O)CNC1=O (cyclo(AGP[X2]AP)),12
8,CCCC[C@@H]1NC(=O)[C@@H]2CCCN2C(=O)CCP(O)(O)=C(Cc2ccccc2)NC(=O)[C@@H]2CCCN2C(=O)CNC1=O (cyclo(GP[X1]P[Nle])),0.12
9,CCCC[C@@H]1NC(=O)[C@@H]2CCCN2C(=O)CCP(=O)(O)[C@H](Cc2ccccc2)NC(=O)[C@@H]2CCCN2C(=O)[C@H](CO)NC1=O (cyclo([Nle]SP[PheΨ(PO2HCH2)Gly]P)),40
10,CCCC[C@@H]1NC(=O)[C@@H]2CCCN2C(=O)CCP(O)(O)=C(Cc2ccccc2)NC(=O)[C@@H]2CCCN2C(=O)[C@H](CO)NC1=O (cyclo([Nle]SP[X1]P)),25
11,"CCCCC1NC(=O)[C@H]2CCCN2C(=O)CCP(=O)(O)[C@@H](Cc2ccccc2)NC(=O)[C@@H]2CCCN2C(=O)CCNC1=O (stereo partly drawn) [(6S,9S,22R)-6-Benzyl-19-butyl-5-hydroxy-5-oxo-1,7,13,17,20-pentaaza-5lambda*5*-phospha-tricyclo[20.3.0.0*9,13*]pentacosane-2,8,14,18,21-pentaone]",0.09

# Test: Binding constant containing a pseudophenylalanine residue
# Remark: another data set of the same source
row,SMILES,Ki [µM]
1,CCCC[C@@H]1NC(=O)[C@@H]2CCCN2C(=O)CCP(O)(O)=C(Cc2ccccc2)NC(=O)[C@@H]2CCCN2C(=O)CNC1=O (cyclo(GP[X1]P[Nle])),0.12
